≈ marks a conversion by molar mass, not a printed value. Calls of active or inactive are those of the source. The rule behind the calls is not given here.
How the values were obtained:
Staphylococcus aureus [1] = assay: Antibacterial activity against Staphylococcus aureus MTCC 2940 at 80 ug/ml by modified microtiter broth dilution method; format: functional, organism-based
Bacillus subtilis = assay: Antibacterial activity against Bacillus subtilis MTCC 121 by modified microtiter broth dilution method; format: functional
Staphylococcus aureus [2] = assay: Antibacterial activity against Staphylococcus aureus MTCC 96 by modified microtiter broth dilution method; format: functional
Micrococcus luteus [3] = assay: Antibacterial activity against Micrococcus luteus MTCC 2470 at 80 ug/ml by modified microtiter broth dilution method; format: functional, organism-based
Raoultella planticola = assay: Antibacterial activity against Klebsiella planticola MTCC 530 by modified microtiter broth dilution method; format: functional
Escherichia coli = assay: Antibacterial activity against Escherichia coli MTCC 739 at 80 ug/ml by modified microtiter broth dilution method; format: functional, organism-based
Pseudomonas aeruginosa = assay: Antibacterial activity against Pseudomonas aeruginosa MTCC 2453 at 80 ug/ml by modified microtiter broth dilution method; format: functional, organism-based
[4] = tested on: Radical scavenging activity; assay: Antioxidant activity assessed as DPPH free radical scavenging activity after 48 hrs; format: functional
[5] = Antioxidant activity assessed as superoxide radical scavenging activity after 48 hrs; format: functional
[6] = Antioxidant activity of the compound assessed as inhibition of lipid peroxidation after 48 hrs; format: functional
Erythrocyte = assay: Antioxidant activity in erythrocytes assessed as inhibition of hemolysis after 48 hrs; format: functional, cell-based
[7] = Chemical stability of the compound in antioxidant reaction; format: physicochemical
NCI60 = assay: Cytotoxicity against human NCI60 cells; format: functional, cell-based
Staphylococcus aureus [8] = assay: Antibacterial activity against Staphylococcus aureus MTCC 2940 by modified microtiter broth dilution method; format: functional
Staphylococcus aureus [9] = assay: Antibacterial activity against Staphylococcus aureus MTCC 96 at 80 ug/ml by modified microtiter broth dilution method; format: functional, organism-based
Micrococcus luteus [10] = assay: Antibacterial activity against Micrococcus luteus MTCC 2470 by modified microtiter broth dilution method; format: functional
Candida albicans [11] = assay: Antifungal activity against Candida albicans MTCC 3958 by well diffusion method; format: functional
Candida albicans [12] = assay: Antifungal activity against Candida albicans MTCC 4748 by well diffusion method; format: functional
Candida albicans [13] = assay: Antifungal activity against Candida albicans MTCC 7315 by well diffusion method; format: functional
Candida albicans [14] = assay: Antifungal activity against Candida albicans MTCC 854 by well diffusion method; format: functional
Candida parapsilosis [15] = assay: Antifungal activity against Candida parapsilosis MTCC 1744 by well diffusion method; format: functional; settings: Lodderomyces parapsilosis
Candida parapsilosis [16] = assay: Antifungal activity against Candida parapsilosis MTCC 3018 by well diffusion method; format: functional; settings: Lodderomyces parapsilosis
Candida albicans [17] = assay: Antifungal activity against Candida albicans MTCC 1637 by well diffusion method; format: functional
Nakaseomyces glabratus = assay: Antifungal activity against Candida glabrata MTCC 3019 by well diffusion method; format: functional
Candida albicans [18] = assay: Antifungal activity against Candida albicans MTCC 227 by well diffusion method; format: functional
Candida albicans [19] = assay: Antifungal activity against Candida albicans MTCC 183 by well diffusion method; format: functional
Candida albicans [20] = assay: Antifungal activity against Candida albicans MTCC 3017 by well diffusion method; format: functional
Pichia kudriavzevii = assay: Antifungal activity against Issatchenkia orientalis MTCC 3020 by well diffusion method; format: functional
[21] = tested on: Radical scavenging activity; assay: Antioxidant activity assessed as DPPH free radical scavenging activity; format: functional
[22] = Antioxidant activity assessed as superoxide radical scavenging activity; format: functional
[23] = Antioxidant activity of the compound assessed as inhibition of lipid peroxidation; format: functional
[24] = Antioxidant activity in erythrocytes assessed as inhibition of hemolysis; format: functional, cell-based; settings: erythrocyte

SMILES | MIC (Bacillus subtilis) [µg/mL] | MIC (Raoultella planticola) [µg/mL] | Activity (Escherichia coli) | Activity (Pseudomonas aeruginosa) | MIC (Candida albicans [11]) [µg/mL] | MIC (Candida albicans [12]) [µg/mL] | MIC (Candida albicans [13]) [µg/mL] | MIC (Candida albicans [14]) [µg/mL] | MIC (Candida parapsilosis [15]) [µg/mL] | MIC (Candida parapsilosis [16]) [µg/mL] | MIC (Candida albicans [17]) | MIC (Nakaseomyces glabratus) | MIC (Candida albicans [18]) | MIC (Candida albicans [19]) | MIC (Candida albicans [20]) | MIC (Pichia kudriavzevii) | further results
COC(=O)Cc1cc(O)cc2oc(-c3ccc(OC)c(OC)c3)cc(=O)c12 | 9 (≈ 24.3 µM) | 18 (≈ 48.6 µM) | inactive | inactive |  |  |  |  |  |  |  |  |  |  |  |  | Activity (Staphylococcus aureus [1]): inactive; MIC (Staphylococcus aureus [2]): 37 µg/mL (≈ 99.9 µM); Activity (Micrococcus luteus [3]): inactive; Activity [4]: inactive; Activity [5]: inactive; Activity [6]: inactive; Activity (Erythrocyte): inactive; Stability [7]: Unstable; Activity (NCI60): inactive
COC(=O)Cc1cc(O)cc2oc(-c3ccc(Cl)c(F)c3)cc(=O)c12 | 75 (≈ 207 µM) | 37 (≈ 102 µM) | inactive | inactive | 4 (≈ 11 µM) | 4 (≈ 11 µM) | 9 (≈ 24.8 µM) | 9 (≈ 24.8 µM) | 9 (≈ 24.8 µM) | 9 (≈ 24.8 µM) | inactive | inactive | inactive | inactive | inactive | inactive | MIC (Staphylococcus aureus [8]): 18 µg/mL (≈ 49.6 µM); Activity (Staphylococcus aureus [9]): inactive; MIC (Micrococcus luteus [10]): 18 µg/mL (≈ 49.6 µM); EC50 [21]: 61.66 µg/mL (≈ 170 µM); EC50 [22]: 60.92 µg/mL (≈ 168 µM); EC50 [23]: Not Active; EC50 [24]: Not Active
OC(Cn1cncn1)(Cn1cncn1)c1ccc(F)cc1F [FLUCONAZOLE] |  |  |  |  | 64 (≈ 209 µM) | 32 (≈ 104 µM) | 32 (≈ 104 µM) | 32 (≈ 104 µM) | 16 (≈ 52.2 µM) | 16 (≈ 52.2 µM) | 32 µg/mL (≈ 104 µM) | 64 µg/mL (≈ 209 µM) | 32 µg/mL (≈ 104 µM) | 32 µg/mL (≈ 104 µM) | 64 µg/mL (≈ 209 µM) | 128 µg/mL (≈ 418 µM) | 
